Assay results from patent US20230085307A1, “PYRIDAZINONE COMPOUND AND HERBICIDE” (NISSAN CHEMICAL CORPORATION, priority 2019, published 2023).

Columns and labels:
[1] = test system: southern crabgrass; assay: Test Example 4: herbicidal effect by soil treatment (Table 19, symbol F); format: in vivo, southern crabgrass (Digitaria ciliaris); conditions: amount of applied herbicide 320 g/ha
In short: (§1)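 Herbicidal effect was rated 3 weeks after treatment, using the scoring criteria of an earlier test. The compound, formulated as an emulsion and diluted in water to a set herbicide amount, had been sprayed uniformly on soil over freshly sown seeds. Growth took place in a greenhouse at 25° C. to 30° C.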

[2] = test system: barnyard grass; assay: Test Example 3: herbicidal effect by foliage application, Wagner pot (Table 18, symbol H); format: in vivo, barnyard grass (Echinochloa crus-galli); conditions: 320 g/ha
In short: (§2)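 Plants were sown in alluvial soil held under 0.1–0.5 cm standing water and grown 14 days in a greenhouse at 25–30 °C. An emulsifiable formulation, water-diluted to the set dose, was then sprayed onto the foliage, and effects were scored three weeks later using previously defined criteria.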

[3] = test system: redroot pigweed; assay: Test Example 4: herbicidal effect by soil treatment (Table 19, symbol N); format: in vivo, redroot pigweed (Amaranthus retroflexus); conditions: amount of applied herbicide 320 g/ha
In short: as §1

[4] = test system: windgrass; assay: Test Example 4: herbicidal effect by soil treatment (Table 19, symbol L); format: in vivo, windgrass (Apera spica-venti); conditions: amount of applied herbicide 320 g/ha
In short: as §1

[5] = test system: rice flat sedge; assay: Test Example 3: herbicidal effect by foliage application, Wagner pot (Table 18, symbol E); format: in vivo, rice flat sedge (Cyperus iria); conditions: 320 g/ha
In short: as §2

[6] = test system: Italian ryegrass; assay: Test Example 4: herbicidal effect by soil treatment (Table 19, symbol K); format: in vivo, Italian ryegrass (Lolium multiflorum); conditions: amount of applied herbicide 320 g/ha
In short: as §1

[7] = test system: persian speedwell; assay: Test Example 4: herbicidal effect by soil treatment (Table 19, symbol R); format: in vivo, Persian speedwell (Veronica persica); conditions: amount of applied herbicide 320 g/ha
In short: as §1

[8] = test system: wild oat; assay: Test Example 5: herbicidal effect by foliage application, plastic box (Table 20, symbol I); format: in vivo, wild oat (Avena fatua); conditions: foliage application, 320 g/ha, three weeks after application
In short: (§3)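 Foliar spray test: emulsion formulation diluted in water to a set application rate, sprayed onto 14-day-old plants raised in diluvial soil at 25° C to 30° C under glass. Both herbicidal effect and crop effect rated visually three weeks later.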

[9] = test system: blackgrass; assay: Test Example 5: herbicidal effect by foliage application, plastic box (Table 20, symbol J); format: in vivo, blackgrass (Alopecurus myosuroides); conditions: foliage application, 320 g/ha, three weeks after application
In short: as §3

[10] = test system: redroot pigweed; assay: Test Example 5: herbicidal effect by foliage application, plastic box (Table 20, symbol N); format: in vivo, redroot pigweed (Amaranthus retroflexus); conditions: foliage application, 320 g/ha, three weeks after application
In short: as §3

[11] = test system: Chinese sprangletop; assay: Test Example 3: herbicidal effect by foliage application, Wagner pot (Table 18, symbol D); format: in vivo, chinese sprangletop (Leptochloa chinensis); conditions: 320 g/ha
In short: as §2

[12] = test system: green foxtail; assay: Test Example 5: herbicidal effect by foliage application, plastic box (Table 20, symbol G); format: in vivo, green foxtail (Setaria viridis); conditions: foliage application, 320 g/ha, three weeks after application
In short: as §3

[13] = test system: velvetleaf; assay: Test Example 4: herbicidal effect by soil treatment (Table 19, symbol M); format: in vivo, velvetleaf (Abutilon theophrasti); conditions: amount of applied herbicide 320 g/ha
In short: as §1

[14] = test system: windgrass; assay: Test Example 5: herbicidal effect by foliage application, plastic box (Table 20, symbol L); format: in vivo, windgrass (Apera spica-venti); conditions: foliage application, 320 g/ha, three weeks after application
In short: as §3

[15] = test system: Italian ryegrass; assay: Test Example 5: herbicidal effect by foliage application, plastic box (Table 20, symbol K); format: in vivo, Italian ryegrass (Lolium multiflorum); conditions: foliage application, 320 g/ha, three weeks after application
In short: as §3

[16] = test system: barnyard grass; assay: Test Example 5: herbicidal effect by foliage application, plastic box (Table 20, symbol H); format: in vivo, barnyard grass (Echinochloa crus-galli); conditions: foliage application, 320 g/ha, three weeks after application
In short: as §3

[17] = test system: blackgrass; assay: Test Example 4: herbicidal effect by soil treatment (Table 19, symbol J); format: in vivo, blackgrass (Alopecurus myosuroides); conditions: amount of applied herbicide 320 g/ha
In short: as §1

[18] = test system: persian speedwell; assay: Test Example 5: herbicidal effect by foliage application, plastic box (Table 20, symbol R); format: in vivo, Persian speedwell (Veronica persica); conditions: foliage application, 320 g/ha, three weeks after application
In short: as §3

[19] = test system: southern crabgrass; assay: Test Example 5: herbicidal effect by foliage application, plastic box (Table 20, symbol F); format: in vivo, southern crabgrass (Digitaria ciliaris); conditions: foliage application, 320 g/ha, three weeks after application
In short: as §3

[20] = test system: wild oat; assay: Test Example 4: herbicidal effect by soil treatment (Table 19, symbol I); format: in vivo, wild oat (Avena fatua); conditions: amount of applied herbicide 320 g/ha
In short: as §1

[21] = test system: lambsquarters; assay: Test Example 4: herbicidal effect by soil treatment (Table 19, symbol O); format: in vivo, lambsquarters (Chenopodium album); conditions: amount of applied herbicide 320 g/ha
In short: as §1

[22] = test system: velvetleaf; assay: Test Example 5: herbicidal effect by foliage application, plastic box (Table 20, symbol M); format: in vivo, velvetleaf (Abutilon theophrasti); conditions: foliage application, 320 g/ha, three weeks after application
In short: as §3

[23] = test system: false cleavers; assay: Test Example 4: herbicidal effect by soil treatment (Table 19, symbol Q); format: in vivo, false cleavers (Galium spurium); conditions: amount of applied herbicide 320 g/ha
In short: as §1

[24] = test system: chickweed; assay: Test Example 4: herbicidal effect by soil treatment (Table 19, symbol P); format: in vivo, common chickweed (Stellaria media); conditions: amount of applied herbicide 320 g/ha
In short: as §1

[25] = test system: false cleavers; assay: Test Example 5: herbicidal effect by foliage application, plastic box (Table 20, symbol Q); format: in vivo, false cleavers (Galium spurium); conditions: foliage application, 320 g/ha, three weeks after application
In short: as §3

[26] = test system: lambsquarters; assay: Test Example 5: herbicidal effect by foliage application, plastic box (Table 20, symbol O); format: in vivo, lambsquarters (Chenopodium album); conditions: foliage application, 320 g/ha, three weeks after application
In short: as §3

[27] = test system: chickweed; assay: Test Example 5: herbicidal effect by foliage application, plastic box (Table 20, symbol P); format: in vivo, common chickweed (Stellaria media); conditions: foliage application, 320 g/ha, three weeks after application
In short: as §3

[28] = test system: barnyard grass; assay: Test Example 4: herbicidal effect by soil treatment (Table 19, symbol H); format: in vivo, barnyard grass (Echinochloa crus-galli); conditions: amount of applied herbicide 320 g/ha
In short: as §1

[29] = test system: green foxtail; assay: Test Example 4: herbicidal effect by soil treatment (Table 19, symbol G); format: in vivo, green foxtail (Setaria viridis); conditions: amount of applied herbicide 320 g/ha
In short: as §1

| SMILES | F: southern crabgrass, herbicidal effect grade [1] | herbicidal effect on barnyard grass (H) [2] | N: redroot pigweed, herbicidal effect grade [3] | L: windgrass, herbicidal effect grade [4] | herbicidal effect on rice flat sedge (E) [5] | K: Italian ryegrass, herbicidal effect grade [6] | R: persian speedwell, herbicidal effect grade [7] | I: wild oat, herbicidal effect grade [8] | J: blackgrass, herbicidal effect grade [9] | N: redroot pigweed, herbicidal effect grade [10] | herbicidal effect on Chinese sprangletop (D) [11] | G: green foxtail, herbicidal effect grade [12] | M: velvetleaf, herbicidal effect grade [13] | L: windgrass, herbicidal effect grade [14] | K: Italian ryegrass, herbicidal effect grade [15] | H: barnyard grass, herbicidal effect grade [16] | J: blackgrass, herbicidal effect grade [17] | R: persian speedwell, herbicidal effect grade [18] | F: southern crabgrass, herbicidal effect grade [19] | I: wild oat, herbicidal effect grade [20] | other results |
| --- | --- | --- | --- | --- | --- | --- | --- | --- | --- | --- | --- | --- | --- | --- | --- | --- | --- | --- | --- | --- | --- |
| COc1ccc(-c2sc3cc(OC)ccc3c2-c2c(O)c(C)nn(C)c2=O)cc1 [3-068] | 0 (Herbicidal rate of 5% or less (almost no effect)) | 3 (Herbicidal rate of 40% or more and less than 70%) | 4 (Herbicidal rate of 70% or more and less than 90%) | 0 (Herbicidal rate of 5% or less (almost no effect)) | 3 (Herbicidal rate of 40% or more and less than 70%) | 2 (Herbicidal rate of 20% or more and less than 40%) | 5 (Herbicidal rate of 90% or more (almost completely withered)) | 0 (Herbicidal rate of 5% or less (almost no effect)) | 1 (Herbicidal rate of 5% or more and less than 20%) | 3 (Herbicidal rate of 40% or more and less than 70%) | 2 (Herbicidal rate of 20% or more and less than 40%) | 0 (Herbicidal rate of 5% or less (almost no effect)) | 0 (Herbicidal rate of 5% or less (almost no effect)) | 0 (Herbicidal rate of 5% or less (almost no effect)) | 3 (Herbicidal rate of 40% or more and less than 70%) | 0 (Herbicidal rate of 5% or less (almost no effect)) | 0 (Herbicidal rate of 5% or less (almost no effect)) | 5 (Herbicidal rate of 90% or more (almost completely withered)) | 0 (Herbicidal rate of 5% or less (almost no effect)) | 0 (Herbicidal rate of 5% or less (almost no effect)) | O: lambsquarters, herbicidal effect grade [21]: 4 (Herbicidal rate of 70% or more and less than 90%); M: velvetleaf, herbicidal effect grade [22]: 4 (Herbicidal rate of 70% or more and less than 90%); Q: false cleavers, herbicidal effect grade [23]: 4 (Herbicidal rate of 70% or more and less than 90%); P: chickweed, herbicidal effect grade [24]: 2 (Herbicidal rate of 20% or more and less than 40%); Q: false cleavers, herbicidal effect grade [25]: 5 (Herbicidal rate of 90% or more (almost completely withered)); O: lambsquarters, herbicidal effect grade [26]: 5 (Herbicidal rate of 90% or more (almost completely withered)); P: chickweed, herbicidal effect grade [27]: 5 (Herbicidal rate of 90% or more (almost completely withered)); H: barnyard grass, herbicidal effect grade [28]: 0 (Herbicidal rate of 5% or less (almost no effect)); G: green foxtail, herbicidal effect grade [29]: 0 (Herbicidal rate of 5% or less (almost no effect)) |
| COc1ccc2c(-c3c(O)c(C)nn(C)c3=O)c(-c3ccc(OC)c(OC)c3)sc2c1 [3-080] | 0 (Herbicidal rate of 5% or less (almost no effect)) | 1 (Herbicidal rate of 5% or more and less than 20%) | 0 (Herbicidal rate of 5% or less (almost no effect)) | 0 (Herbicidal rate of 5% or less (almost no effect)) | 4 (Herbicidal rate of 70% or more and less than 90%) | 0 (Herbicidal rate of 5% or less (almost no effect)) | 2 (Herbicidal rate of 20% or more and less than 40%) | 0 (Herbicidal rate of 5% or less (almost no effect)) | 2 (Herbicidal rate of 20% or more and less than 40%) | 0 (Herbicidal rate of 5% or less (almost no effect)) | 0 (Herbicidal rate of 5% or less (almost no effect)) | 0 (Herbicidal rate of 5% or less (almost no effect)) | 0 (Herbicidal rate of 5% or less (almost no effect)) | 0 (Herbicidal rate of 5% or less (almost no effect)) | 4 (Herbicidal rate of 70% or more and less than 90%) | 0 (Herbicidal rate of 5% or less (almost no effect)) | 0 (Herbicidal rate of 5% or less (almost no effect)) | 5 (Herbicidal rate of 90% or more (almost completely withered)) | 0 (Herbicidal rate of 5% or less (almost no effect)) | 0 (Herbicidal rate of 5% or less (almost no effect)) | O: lambsquarters, herbicidal effect grade [21]: 0 (Herbicidal rate of 5% or less (almost no effect)); M: velvetleaf, herbicidal effect grade [22]: 1 (Herbicidal rate of 5% or more and less than 20%); Q: false cleavers, herbicidal effect grade [23]: 0 (Herbicidal rate of 5% or less (almost no effect)); P: chickweed, herbicidal effect grade [24]: 0 (Herbicidal rate of 5% or less (almost no effect)); Q: false cleavers, herbicidal effect grade [25]: 0 (Herbicidal rate of 5% or less (almost no effect)); O: lambsquarters, herbicidal effect grade [26]: 1 (Herbicidal rate of 5% or more and less than 20%); P: chickweed, herbicidal effect grade [27]: 5 (Herbicidal rate of 90% or more (almost completely withered)); H: barnyard grass, herbicidal effect grade [28]: 0 (Herbicidal rate of 5% or less (almost no effect)); G: green foxtail, herbicidal effect grade [29]: 0 (Herbicidal rate of 5% or less (almost no effect)) |
